# Patent US6703536B2, “Disposable absorbent article having a skin care composition containing an enzyme inhibitor” (The Procter & Gamble Company, priority 1998, dated 2004)
# Square brackets hold non-standard residues; d marks the D form. Peptide text beside a SMILES is read from it. * marks the point of attachment. Sta = CC(C)C[C@H](N)[C@@H](O)CC(=O)O; Isovaleryl = CC(C)CC(=O)*
# B1: Soybean trypsin inhibitor: plant-derived trypsin inhibitor (protein, UniProt P01070 25-205, looked up)
# Trypsin inhibitor A: DFVLDNEGNPLENGGTYYILSDITAFGGIRAAPTGNERCPLTVVQSRNELDKGIGTIISSPYRIRFIAEGHPLSLKFDSFAVIMLCVGIPTEWSVVEDLPEGPAVKIGENKDAMDGWFRLERVSDDEFNNYKLVFCPQQAEDDKCGDIGISIDHDDGTRRLVVSKNKPLVVQFQKLDKESL
# Molecular target: protease activity in feces
# Test: General Fecal Enzymes Method (casein-resorufin cleavage)
# Assay type: biochemical, infant
# Details: fecal suspension, casein-resorufin substrate, pH 7.8, 37° C. for 60 minutes
# Description: Pooled infant feces (at least five different samples) are collected in a manner to keep them free of urine and contamination and mixed with water to obtain a weight by weight (w/w) mixture (e.g., 1:50 w/w). This mixture is then mixed thoroughly to obtain a homogeneous suspension by homogenization or sonication. […] (Also, to ensure complete linearity the final absorbance should never exceed 1.5 OD405 units). If the activity of the pooled infant feces is outside this range, it is not possible to accurately determine IC50 values for putative protease inhibitors. However, the range of enzyme activity may be adjusted by increasing or decreasing the dilution factor accordingly for each enzyme. If this is not possible, a different group of subjects should be used to obtain the sample pool.
# The general method described above for obtaining a sample of feces suitable for use in Specific Fecal Enzyme Methods can be easily adapted by one skilled in the art to obtain appropriate samples of feces suitable for use in the General Fecal Enzymes Method listed below without undue experimentation.
# To test the efficacy of protease inhibitors against the protease activity in feces, 50 μL of inhibitor and 50 μL of fecal suspension are added to a 1.5 mL microcentrifuge tube. The microcentrifuge tube is mixed by inversion and incubated at 25° C. for 45 minutes. Then, 50 μL of protease buffer (200 mM TRIS buffer containing 20 mM CaCl2, pH 7.8) is added to the microcentrifuge tube. The microcentrifuge tube is again mixed by inversion and incubated at 25° C. for 45 minutes. […] The microcentrifuge tube is again mixed by inversion and incubated at 37° C. for 60 minutes for the substrate cleavage reaction to take place. Then, 480 μL of trichloroacetic acid (5% w/v) is added to stop the reaction and precipitate any unreacted casein-resorufin. The microcentrifuge tube is mixed by inversion incubated at 37° C. for 15 minutes. […] Then, 400 μL of the supernatant is added to 600 μL of assay buffer (0.5 M TRIS, pH 8.8) in a cuvette. […] The same procedure is repeated without the putative inhibitor. […] Before the start of the reaction, A and Ai are nearly zero. […] The rates, vi and v, and the inhibitor concentration [I] are used to calculate IC50 according to the equation expressed above.
row,Molecule,IC50
1,CC(C)C[C@H](NC(=O)[C@@H](NC(=O)N[C@@H](Cc1ccccc1)C(=O)O)[C@@H]1CCN=C(N)N1)C(=O)N[C@H](C=O)Cc1ccccc1 [Chymostatin],64 µM
2,CC(C)CC(=O)N[C@H](C(=O)N[C@H](C(=O)N[C@@H](CC(C)C)[C@@H](O)CC(=O)N[C@@H](C)C(=O)N[C@@H](CC(C)C)[C@@H](O)CC(=O)O)C(C)C)C(C)C [Pepstatin A] (Isovaleryl-VV[Sta]A[Sta]-OH),> 32 µM
3,CC(=O)N[C@@H](CC(C)C)C(=O)N[C@@H](CC(C)C)C(=O)N[C@H](C=O)CCCNC(=N)N [Leupeptin],> 320 µM
4,B1,4.9 µM
